The values below come from patent publication US12552783B2, “Modulators of proteolysis and associated methods of use” (Arvinas Operations, Inc., priority 2018, dated 2026).

In the assay the target is KRas (Homo sapiens, UniProt P01116, G12C). The assay is described as follows: KRas degradation in NCI-H2030 cells by Western blot, normalized to GAPDH (data of Table 14). The arrangement: host or cells: NCI-H2030. In kind it is cell-based. The note with it: for Dmax: NCI-H2030. The procedure, abridged: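 Cells serum-starved 24 h, then treated at 0.3, 1 and 3 μM in 0.1% DMSO, 24 h for VHL-based compounds and 72 h for others. Lysates (10 μg protein) immunoblotted; KRas normalized to GAPDH, degradation visually estimated below 25% or quantified versus DMSO lane, giving DC50 and DMax.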
In general terms: Immunoblotting shows a protein as a band on a membrane.

Regarding `C=CC(=O)N1CCN(c2nc(NCCC(=O)N(C)CCNc3cccc4c3C(=O)N(C3CCC(=O)NC3=O)C4=O)nc3c(F)c(-c4c(O)cccc4F)c(Cl)cc23)CC1` [compound 107, 3-(((S)-4-(4-acryloylpiperazin-1-yl)-6-chloro-8-fluoro-7-(2-fluoro-6-hydroxyphenyl)quinazolin-2-yl)amino)-N-(2-((2-(2,6-dioxopiperidin-3-yl)-1,3-dioxoisoindolin-4-yl)amino)ethyl)-N-methylpropanamide], the “Percent Degradation at Indicated Concentration (μM)” value (shortened to “Percent Degradation”) (H2030, 3 μM) is on record as “C (Percent Degradation: C ≤ 35)”.
In the case of `C=CC(=O)N1CCN(c2nc(NCCC(=O)N(C)CCNc3cccc4c3C(=O)N(C3CCC(=O)NC3=O)C4=O)nc3c(F)c(-c4c(O)cccc4F)c(Cl)cc23)CC1` [compound 108, 3-(((R)-4-(4-acryloylpiperazin-1-yl)-6-chloro-8-fluoro-7-(2-fluoro-6-hydroxyphenyl)quinazolin-2-yl)amino)-N-(2-((2-(2,6-dioxopiperidin-3-yl)-1,3-dioxoisoindolin-4-yl)amino)ethyl)-N-methylpropanamide], the Dmax is ≤ 35%. Also, the “Percent Degradation” value (H2030, 0.3 μM) is “C (Percent Degradation: C ≤ 35)”. The “Percent Degradation” value (H2030, 1 μM) was “C (Percent Degradation: C ≤ 35)”. For the same compound, for the setting “H2030, 3 μM”, the “Percent Degradation” value is “C (Percent Degradation: C ≤ 35)”.
As to `C=CC(=O)N1CCN(c2nc(NCCC(=O)N(C)CCOCCNc3cccc4c3C(=O)N(C3CCC(=O)NC3=O)C4=O)nc3c(F)c(-c4c(O)cccc4F)c(Cl)cc23)CC1` [compound 109, 3-(((S)-4-(4-acryloylpiperazin-1-yl)-6-chloro-8-fluoro-7-(2-fluoro-6-hydroxyphenyl)quinazolin-2-yl)amino)-N-(2-(2-((2-(2,6-dioxopiperidin-3-yl)-1,3-dioxoisoindolin-4-yl)amino)ethoxy)ethyl)-N-methylpropanamide], the Dmax was ≤ 35%. Moreover, the “Percent Degradation” value (H2030, 0.3 μM) is on record as “C (Percent Degradation: C ≤ 35)”. For the same compound, the “Percent Degradation” value (H2030, 1 μM) was “C (Percent Degradation: C ≤ 35)”. Moreover, the “Percent Degradation” value (H2030, 3 μM) is on record as “C (Percent Degradation: C ≤ 35)”.
On to `C=CC(=O)N1CCN(c2nc(NCCC(=O)N(C)CCOCCOCCNc3cccc4c3C(=O)N(C3CCC(=O)NC3=O)C4=O)nc3c(F)c(-c4c(O)cccc4F)c(Cl)cc23)CC1` [compound 111, 3-(((S)-4-(4-acryloylpiperazin-1-yl)-6-chloro-8-fluoro-7-(2-fluoro-6-hydroxyphenyl)quinazolin-2-yl)amino)-N-(2-(2-(2-((2-(2,6-dioxopiperidin-3-yl)-1,3-dioxoisoindolin-4-yl)amino)ethoxy)ethoxy)ethyl)-N-methylpropanamide], for which the Dmax is ≤ 35%. For the same compound, the “Percent Degradation” value (H2030, 0.3 μM) is “C (Percent Degradation: C ≤ 35)”. Further, the “Percent Degradation” value (H2030, 1 μM) is recorded as “C (Percent Degradation: C ≤ 35)”. Moreover, for the setting “H2030, 3 μM”, the “Percent Degradation” value was “C (Percent Degradation: C ≤ 35)”.
Regarding `C=CC(=O)N1CCN(c2nc(NCCC(=O)N(C)CCOCCOCCOCCNc3cccc4c3C(=O)N(C3CCC(=O)NC3=O)C4=O)nc3c(F)c(-c4c(O)cccc4F)c(Cl)cc23)CC1` [compound 113, 3-(((S)-4-(4-acryloylpiperazin-1-yl)-6-chloro-8-fluoro-7-(2-fluoro-6-hydroxyphenyl)quinazolin-2-yl)amino)-N-(2-(2-(2-(2-((2-(2,6-dioxopiperidin-3-yl)-1,3-dioxoisoindolin-4-yl)amino)ethoxy)ethoxy)ethoxy)ethyl)-N-methylpropanamide], the Dmax was ≤ 35%. The “Percent Degradation” value (H2030, 0.3 μM) is “C (Percent Degradation: C ≤ 35)”. Also, the “Percent Degradation” value (H2030, 1 μM) is “C (Percent Degradation: C ≤ 35)”. Besides, the “Percent Degradation” value (H2030, 3 μM) is “C (Percent Degradation: C ≤ 35)”.
Turning to `C=CC(=O)N1CCN(c2nc(NCCC(=O)N(C)CCOCCOCCOCCOCCNc3cccc4c3C(=O)N(C3CCC(=O)NC3=O)C4=O)nc3c(F)c(-c4c(O)cccc4F)c(Cl)cc23)CC1` [compound 115, 3-(((S)-4-(4-acryloylpiperazin-1-yl)-6-chloro-8-fluoro-7-(2-fluoro-6-hydroxyphenyl)quinazolin-2-yl)amino)-N-(14-((2-(2,6-dioxopiperidin-3-yl)-1,3-dioxoisoindolin-4-yl)amino)-3,6,9,12-tetraoxatetradecyl)-N-methylpropanamide], the “Percent Degradation” value (H2030, 3 μM) is given as “C (Percent Degradation: C ≤ 35)”.
Take `C=CC(=O)N1CCN(c2nc(NCCC(=O)N(C)CCOCCOCCOCCOCCNc3cccc4c3C(=O)N(C3CCC(=O)NC3=O)C4=O)nc3c(F)c(-c4c(O)cccc4F)c(Cl)cc23)CC1` [compound 116, 3-(((R)-4-(4-acryloylpiperazin-1-yl)-6-chloro-8-fluoro-7-(2-fluoro-6-hydroxyphenyl)quinazolin-2-yl)amino)-N-(14-((2-(2,6-dioxopiperidin-3-yl)-1,3-dioxoisoindolin-4-yl)amino)-3,6,9,12-tetraoxatetradecyl)-N-methylpropanamide]: the maximal degradation (Dmax) was ≤ 35%. In addition, the “Percent Degradation” value (H2030, 0.3 μM) was “C (Percent Degradation: C ≤ 35)”. In addition, the “Percent Degradation” value (H2030, 1 μM) is “C (Percent Degradation: C ≤ 35)”. Besides, for the setting “H2030, 3 μM”, the “Percent Degradation” value is recorded as “C (Percent Degradation: C ≤ 35)”.
As to `CN(CCOCCOCCOCCNc1cccc2c1C(=O)N(C1CCC(=O)NC1=O)C2=O)C(=O)CCNc1nc(N2CCN(C(N)=O)CC2)c2cc(Cl)c(-c3c(O)cccc3F)c(F)c2n1` [compound 146, 4-((7S)-6-chloro-2-((1-((2-(2,6-dioxopiperidin-3-yl)-1,3-dioxoisoindolin-4-yl)amino)-12-methyl-13-oxo-3,6,9-trioxa-12-azapentadecan-15-yl)amino)-8-fluoro-7-(2-fluoro-6-hydroxyphenyl)quinazolin-4-yl)piperazine-1-carboxamide], the Dmax is ≤ 35%. For the same compound, the “Percent Degradation” value (H2030, 0.3 μM) is given as “C (Percent Degradation: C ≤ 35)”. The “Percent Degradation” value (H2030, 1 μM) is recorded as “C (Percent Degradation: C ≤ 35)”. In addition, the “Percent Degradation” value (H2030, 3 μM) is “C (Percent Degradation: C ≤ 35)”.
Regarding `CN(CCOCCOc1ccc2c(c1)C(=O)N(C1CCC(=O)NC1=O)C2=O)C(=O)CCNc1nc(N2CCN(C(=O)C(O)O)CC2)c2cc(Cl)c(-c3c(O)cccc3F)c(F)c2n1` [compound 149, 3-(((S)-6-chloro-4-(4-(2,2-dihydroxyacetyl)piperazin-1-yl)-8-fluoro-7-(2-fluoro-6-hydroxyphenyl)quinazolin-2-yl)amino)-N-(2-(2-((2-(2,6-dioxopiperidin-3-yl)-1,3-dioxoisoindolin-5-yl)oxy)ethoxy)ethyl)-N-methylpropanamide], the “Percent Degradation” value (H2030 cells, 3 μM) is reported as “C (Percent Degradation: C ≤ 35)”.
Turning to `CN(CCOCCOc1ccc2c(c1)C(=O)N(C1CCC(=O)NC1=O)C2=O)C(=O)CCNc1nc(N2CCN(C(=O)C(O)O)CC2)c2cc(Cl)c(-c3c(O)cccc3F)c(F)c2n1` [compound 150, 3-(((R)-6-chloro-4-(4-(2,2-dihydroxyacetyl)piperazin-1-yl)-8-fluoro-7-(2-fluoro-6-hydroxyphenyl)quinazolin-2-yl)amino)-N-(2-(2-((2-(2,6-dioxopiperidin-3-yl)-1,3-dioxoisoindolin-5-yl)oxy)ethoxy)ethyl)-N-methylpropanamide], the “Percent Degradation” value reads like this: (H2030 cells, 0.3 μM) “C (Percent Degradation: C ≤ 35)”; (H2030 cells, 1 μM) “C (Percent Degradation: C ≤ 35)”; (H2030 cells, 3 μM) “C (Percent Degradation: C ≤ 35)”.
Turning to `CN(CCOCCOCCOc1ccc2c(c1)C(=O)N(C1CCC(=O)NC1=O)C2=O)C(=O)CCNc1nc(N2CCN(C(=O)C(O)O)CC2)c2cc(Cl)c(-c3c(O)cccc3F)c(F)c2n1` [compound 151, 3-(((S)-6-chloro-4-(4-(2,2-dihydroxyacetyl)piperazin-1-yl)-8-fluoro-7-(2-fluoro-6-hydroxyphenyl)quinazolin-2-yl)amino)-N-(2-(2-(2-((2-(2,6-dioxopiperidin-3-yl)-1,3-dioxoisoindolin-5-yl)oxy)ethoxy)ethoxy)ethyl)-N-methylpropanamide], the “Percent Degradation” value (H2030 cells, 3 μM) was “C (Percent Degradation: C ≤ 35)”.
As for `CN(CCOCCOCCOc1ccc2c(c1)C(=O)N(C1CCC(=O)NC1=O)C2=O)C(=O)CCNc1nc(N2CCN(C(=O)C(O)O)CC2)c2cc(Cl)c(-c3c(O)cccc3F)c(F)c2n1` [compound 152, 3-(((R)-6-chloro-4-(4-(2,2-dihydroxyacetyl)piperazin-1-yl)-8-fluoro-7-(2-fluoro-6-hydroxyphenyl)quinazolin-2-yl)amino)-N-(2-(2-(2-((2-(2,6-dioxopiperidin-3-yl)-1,3-dioxoisoindolin-5-yl)oxy)ethoxy)ethoxy)ethyl)-N-methylpropanamide], the “Percent Degradation” value is, setting by setting: (H2030 cells, 0.3 μM) “C (Percent Degradation: C ≤ 35)”; (H2030 cells, 1 μM) “C (Percent Degradation: C ≤ 35)”; (H2030 cells, 3 μM) “C (Percent Degradation: C ≤ 35)”.
For the compound `O=C1CCC(N2C(=O)c3ccc(OCCOCC/C=C/C(=O)N4CCN(c5ncnc6c(F)c(-c7cc(O)cc8ccccc78)c(Cl)cc56)CC4)cc3C2=O)C(=O)N1` (centres unmarked) [compound 168, (E)-5-(2-((5-(4-(6-chloro-8-fluoro-7-(3-hydroxynaphthalen-1-yl)quinazolin-4-yl)piperazin-1-yl)-5-oxopent-3-en-1-yl)oxy)ethoxy)-2-(2,6-dioxopiperidin-3-yl)isoindoline-1,3-dione], the Dmax was ≤ 35%. Further, the “Percent Degradation” value (H2030, 0.3 μM) was “C (Percent Degradation: C ≤ 35)”. The “Percent Degradation” value (H2030, 1 μM) was “C (Percent Degradation: C ≤ 35)”. In addition, for the setting “H2030, 3 μM”, the “Percent Degradation” value was “C (Percent Degradation: C ≤ 35)”.

As usually defined, the Dmax is the largest share of the target that was removed. A high value points to a fuller loss of target.
